In ChEMBL document CHEMBL1140781, “4-Aminopyridine derivatives with anticholinesterase and antiamnesic activity” (Bioorg Med Chem Lett, 2008):

What was measured:
Acetylcholinesterase = Acetylcholinesterase (Homo sapiens, UniProt P22303); experiment: Inhibition of acetylcholinesterase
Cholinesterase = Cholinesterase (Homo sapiens, UniProt P06276); experiment: Inhibition of butyrylcholinesterase
Rattus norvegicus [1] = experiment: Antiamnesic activity in scopolamine-induced memory deficit rat assessed as training trial latency time at 0.01 mg/kg, ip; assay type: functional; details: route intraperitoneal
Rattus norvegicus [2] = experiment: Antiamnesic activity in scopolamine-induced memory deficit rat assessed as training trial latency time at 0.5 mg/kg, ip; assay type: functional; details: route intraperitoneal
Rattus norvegicus [3] = experiment: Antiamnesic activity in scopolamine-induced memory deficit rat assessed as training trial latency time at 50 mg/kg, ip; assay type: functional; details: route intraperitoneal
Rattus norvegicus [4] = experiment: Antiamnesic activity in scopolamine-induced memory deficit rat assessed as retention trial latency time at 0.01 mg/kg, ip after 24 hrs; assay type: functional; details: route intraperitoneal
Rattus norvegicus [5] = experiment: Antiamnesic activity in scopolamine-induced memory deficit rat assessed as retention trial latency time at 0.5 mg/kg, ip after 24 hrs; assay type: functional; details: route intraperitoneal
Rattus norvegicus [6] = experiment: Antiamnesic activity in scopolamine-induced memory deficit rat assessed as retention trial latency time at 50 mg/kg, ip after 24 hrs; assay type: functional; details: route intraperitoneal
Rattus norvegicus [7] = experiment: Antiamnesic activity in scopolamine-induced memory deficit rat assessed as training trial latency time at 0.02 mg/kg, ip; assay type: functional; details: route intraperitoneal
Rattus norvegicus [8] = experiment: Antiamnesic activity in scopolamine-induced memory deficit rat assessed as training trial latency time at 1.0 mg/kg, ip; assay type: functional; details: route intraperitoneal
Rattus norvegicus [9] = experiment: Antiamnesic activity in scopolamine-induced memory deficit rat assessed as training trial latency time at 100 mg/kg, ip; assay type: functional; details: route intraperitoneal
Rattus norvegicus [10] = experiment: Antiamnesic activity in scopolamine-induced memory deficit rat assessed as retention trial latency time at 0.02 mg/kg, ip after 24 hrs; assay type: functional; details: route intraperitoneal
Rattus norvegicus [11] = experiment: Antiamnesic activity in scopolamine-induced memory deficit rat assessed as retention trial latency time at 1.0 mg/kg, ip after 24 hrs; assay type: functional; details: route intraperitoneal
Rattus norvegicus [12] = experiment: Antiamnesic activity in scopolamine-induced memory deficit rat assessed as retention trial latency time at 100 mg/kg, ip after 24 hrs; assay type: functional; details: route intraperitoneal
Rattus norvegicus [13] = experiment: Antiamnesic activity in scopolamine-induced memory deficit rat assessed as training trial latency time at 17.37 mg/kg, ip; assay type: functional; details: route intraperitoneal
Rattus norvegicus [14] = experiment: Antiamnesic activity in scopolamine-induced memory deficit rat assessed as training trial latency time at 34.73 mg/kg, ip; assay type: functional; details: route intraperitoneal
Rattus norvegicus [15] = experiment: Antiamnesic activity in scopolamine-induced memory deficit rat assessed as retention trial latency time at 17.37 mg/kg, ip after 24 hrs; assay type: functional; details: route intraperitoneal
Rattus norvegicus [16] = experiment: Antiamnesic activity in scopolamine-induced memory deficit rat assessed as retention trial latency time at 34.73 mg/kg, ip after 24 hrs; assay type: functional; details: route intraperitoneal
Rattus norvegicus [17] = experiment: Antiamnesic activity in scopolamine-induced memory deficit rat assessed as training trial latency time at 0.001 mg/kg, ip; assay type: functional; details: route intraperitoneal
Rattus norvegicus [18] = experiment: Antiamnesic activity in scopolamine-induced memory deficit rat assessed as training trial latency time at 0.005 mg/kg, ip; assay type: functional; details: route intraperitoneal
Rattus norvegicus [19] = experiment: Antiamnesic activity in scopolamine-induced memory deficit rat assessed as training trial latency time at 0.1 mg/kg, ip; assay type: functional; details: route intraperitoneal
Rattus norvegicus [20] = experiment: Antiamnesic activity in scopolamine-induced memory deficit rat assessed as retention trial latency time at 0.001 mg/kg, ip after 24 hrs; assay type: functional; details: route intraperitoneal
Rattus norvegicus [21] = experiment: Antiamnesic activity in scopolamine-induced memory deficit rat assessed as retention trial latency time at 0.005 mg/kg, ip after 24 hrs; assay type: functional; details: route intraperitoneal
Rattus norvegicus [22] = experiment: Antiamnesic activity in scopolamine-induced memory deficit rat assessed as retention trial latency time at 0.1 mg/kg, ip after 24 hrs; assay type: functional; details: route intraperitoneal
Rattus norvegicus [23] = experiment: Antiamnesic activity in scopolamine-induced memory deficit rat assessed as training trial time at 0.024 mg/kg, ip; assay type: functional; details: route intraperitoneal
Rattus norvegicus [24] = experiment: Antiamnesic activity in scopolamine-induced memory deficit rat assessed as training trial latency time at 0.24 mg/kg, ip; assay type: functional; details: route intraperitoneal
Rattus norvegicus [25] = experiment: Antiamnesic activity in scopolamine-induced memory deficit rat assessed as training trial latency time at 1.2 mg/kg, ip; assay type: functional; details: route intraperitoneal
Rattus norvegicus [26] = experiment: Antiamnesic activity in scopolamine-induced memory deficit rat assessed as training trial latency time at 2.4 mg/kg, ip; assay type: functional; details: route intraperitoneal
Rattus norvegicus [27] = experiment: Antiamnesic activity in scopolamine-induced memory deficit rat assessed as retention trial latency time at 0.024 mg/kg, ip after 24 hrs; assay type: functional; details: route intraperitoneal
Rattus norvegicus [28] = experiment: Antiamnesic activity in scopolamine-induced memory deficit rat assessed as retention trial latency time at 0.24 mg/kg, ip after 24 hrs; assay type: functional; details: route intraperitoneal
Rattus norvegicus [29] = experiment: Antiamnesic activity in scopolamine-induced memory deficit rat assessed as retention trial latency time at 1.2 mg/kg, ip after 24 hrs; assay type: functional; details: route intraperitoneal
Rattus norvegicus [30] = experiment: Antiamnesic activity in scopolamine-induced memory deficit rat assessed as retention trial latency time at 2.4 mg/kg, ip after 24 hrs; assay type: functional; details: route intraperitoneal

Acetylcholinesterase, sequence (P22303 whole entry): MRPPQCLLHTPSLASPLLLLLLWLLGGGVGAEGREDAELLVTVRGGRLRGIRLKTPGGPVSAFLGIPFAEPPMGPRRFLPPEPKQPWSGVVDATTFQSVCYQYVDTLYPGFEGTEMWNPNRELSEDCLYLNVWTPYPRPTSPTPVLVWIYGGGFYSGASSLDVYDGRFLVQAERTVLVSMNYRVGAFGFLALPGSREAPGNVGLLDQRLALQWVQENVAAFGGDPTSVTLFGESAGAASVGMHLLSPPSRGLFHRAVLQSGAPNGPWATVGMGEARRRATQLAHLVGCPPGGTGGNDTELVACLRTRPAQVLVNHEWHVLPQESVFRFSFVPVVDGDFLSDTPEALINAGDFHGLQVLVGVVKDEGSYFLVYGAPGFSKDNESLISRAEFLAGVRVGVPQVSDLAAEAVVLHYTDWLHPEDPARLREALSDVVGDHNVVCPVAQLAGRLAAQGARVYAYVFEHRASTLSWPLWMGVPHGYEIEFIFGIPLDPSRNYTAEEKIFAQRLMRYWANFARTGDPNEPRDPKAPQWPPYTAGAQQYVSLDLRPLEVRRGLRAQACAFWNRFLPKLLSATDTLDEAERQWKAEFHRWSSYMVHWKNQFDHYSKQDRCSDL
Cholinesterase, sequence (P06276 whole entry): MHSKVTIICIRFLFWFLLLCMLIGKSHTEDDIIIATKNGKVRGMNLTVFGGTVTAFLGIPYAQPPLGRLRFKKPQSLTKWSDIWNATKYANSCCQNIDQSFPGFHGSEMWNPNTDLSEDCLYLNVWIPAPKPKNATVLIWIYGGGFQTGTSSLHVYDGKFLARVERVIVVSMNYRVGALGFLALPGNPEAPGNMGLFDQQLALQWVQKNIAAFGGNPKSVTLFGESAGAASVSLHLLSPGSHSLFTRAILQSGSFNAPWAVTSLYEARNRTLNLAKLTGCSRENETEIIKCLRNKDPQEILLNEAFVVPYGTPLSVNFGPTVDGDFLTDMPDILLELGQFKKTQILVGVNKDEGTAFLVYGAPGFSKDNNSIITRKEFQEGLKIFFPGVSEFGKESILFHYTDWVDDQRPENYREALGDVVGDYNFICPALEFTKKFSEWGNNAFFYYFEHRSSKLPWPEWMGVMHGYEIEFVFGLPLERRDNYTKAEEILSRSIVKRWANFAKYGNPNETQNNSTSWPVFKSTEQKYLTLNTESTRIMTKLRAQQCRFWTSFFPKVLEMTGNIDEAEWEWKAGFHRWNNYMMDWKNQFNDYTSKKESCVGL

C[N+](C)(C)CCOC(=O)Nc1ccncc1Br
Ki (Acetylcholinesterase): 116 µM
Ki (Cholinesterase): 274 µM

CN(C)CCOC(=O)Nc1cc(Cl)nc(Cl)c1
Ki (Acetylcholinesterase): 140 µM
Ki (Cholinesterase): 174 µM

CN(C)CCOC(=O)Nc1ccncc1
Ki (Acetylcholinesterase): 314 µM
Ki (Cholinesterase): 20.4 µM
Time (Rattus norvegicus [1]): 20.3 s
Time (Rattus norvegicus [2]): 43.6 s
Time (Rattus norvegicus [3]): 25.5 s
Time (Rattus norvegicus [4]): 12.1 s
Time (Rattus norvegicus [5]): 49.7 s
Time (Rattus norvegicus [6]): 39.6 s

CN(C)CCOC(=O)Nc1ccnc(Cl)c1
Ki (Acetylcholinesterase): 208 µM
Ki (Cholinesterase): 380 µM

C[N+](C)(C)CCOC(=O)Nc1ccncc1.[I-]
Ki (Acetylcholinesterase): 159 µM
Ki (Cholinesterase): 754 µM
Time (Rattus norvegicus [7]): 37.3 s
Time (Rattus norvegicus [8]): 21.4 s
Time (Rattus norvegicus [9]): 30.6 s
Time (Rattus norvegicus [10]): 40.4 s
Time (Rattus norvegicus [11]): 21 s
Time (Rattus norvegicus [12]): 21.3 s

CC(C)(C)C(=O)OCC[N+](C)(C)C.CC(C)(C)C(=O)[O-]
Time (Rattus norvegicus [13]): 38.8 s
Time (Rattus norvegicus [14]): 14.5 s
Time (Rattus norvegicus [15]): 36.8 s
Time (Rattus norvegicus [16]): 45.8 s

C[N+](C)(C)CCOC(=O)Nc1ccnc(Cl)c1
Ki (Acetylcholinesterase): 151 µM
Ki (Cholinesterase): 161 µM

CN(C)CCOC(=O)Nc1ccncc1Br
Ki (Acetylcholinesterase): 316 µM
Ki (Cholinesterase): 273 µM

Nc1ccncc1 [DALFAMPRIDINE]
Time (Rattus norvegicus [17]): 20.8 s
Time (Rattus norvegicus [18]): 22.1 s
Time (Rattus norvegicus [1]): 46.3 s
Time (Rattus norvegicus [19]): 20.3 s
Time (Rattus norvegicus [20]): 38.5 s
Time (Rattus norvegicus [21]): 92.3 s
Time (Rattus norvegicus [4]): 63.5 s
Time (Rattus norvegicus [22]): 33.6 s

C[N+](C)(C)CCOC(=O)Nc1cc(Cl)nc(Cl)c1.[I-]
Ki (Acetylcholinesterase): 64.4 µM
Ki (Cholinesterase): 19.5 µM
Time (Rattus norvegicus [23]): 14.4 s
Time (Rattus norvegicus [24]): 19.7 s
Time (Rattus norvegicus [25]): 21.4 s
Time (Rattus norvegicus [26]): 19 s
Time (Rattus norvegicus [27]): 36.8 s
Time (Rattus norvegicus [28]): 56.9 s
Time (Rattus norvegicus [29]): 92.9 s
Time (Rattus norvegicus [30]): 32.3 s
